This passage reports IC50 results from patent publication US10526337B2, “Heteroaryl derivative or pharmaceutically acceptable salt thereof, preparation method therefor, and pharmaceutical composition for preventing or treating diseases associated with PI3 kinases, containing same as active ingredient” (KOREA RESEARCH INSTITUTE OF CHEMICAL TECHNOLOGY, priority 2015, dated 2020).

Some results are limits rather than exact numbers.

Experiment [1] concerns the target T1, PI3 Kinase (p110δ/p85α) (h) (Homo sapiens, UniProt O00329).
T1 construct: endogenous in cells; host or cells: Raji
The experiment is described as follows: Inhibition of phosphatidylinositol 3-kinase delta (PI3K δ), pAkt Western blotting in IgM-stimulated Raji cells. In kind it is cell-based. As to conditions: ATP=10 uM, sample concentration=100 nM. How it is done: (§1) The stimulated cells were transferred in a 1.5 mL tube, followed by centrifugation at 3000 rpm for 1 minute. 100 μL of RIPA buffer (radioimmunoprecipitation assay buffer, 50 mM Tris-HCl, 5 mM EDTA, 150 mM NaCl, 1% NP-40, 1 mM PMSF, pH 8.0; ELPIS, Korea) was added thereto, which was stored in a 4° C. refrigerator for 12 hours. Centrifugation was performed at 4° C. at 14,000 rpm for 20 minutes. The supernatant was transferred into a new 1.5 mL tube. Protein was quantified by BCA (bicinchoninic acid) method and samples were prepared. The composition of the sample was as follows: sample buffer (ELPIS, EBA-1052) 5×, protein 10 μg, and 1× sample buffer to make the total volume 20 μL. The sample was heated at 100° C. for 5 minutes. The evaporated water vapor was condensed in a refrigerator. The liquid stained on the wall was fallen down by centrifugation for a few seconds. The sample proceeded to 10% SDS (Sodium Dodecyl Sulfate) acrylamide gel for separation. The separated protein was transferred onto PVDF (poly-vinyl difluoride) membrane, followed by reaction with pAkt (phospho protein kinase B) antibody (Ser473 or Thr308; Cell signaling, 9271s or 13038s) for 12 hours at 4° C. The membrane was washed with TBST (Tris-Buffered Saline with Tween 20, 10 mM Tris-HCl, pH 7.5, 150 mM NaCl, 0.1% Tween-20) three times for 5 minutes each, to which the secondary antibody (rabbit antibody, Santacruz, sc-2004) was added, followed by reaction at room temperature for 2 hours. The membrane was washed with TBST three times for 10 minutes each, to which ECL (enhanced chemiluminescence, Thermo, NCI34095KR) was sprayed. Bands were investigated by using LAS-3000.
The inhibition of phosphatidylinositol 3 kinase delta (PI3K δ) by those compounds prepared in Examples 1˜98 was investigated by the following experiment. The inhibition activity of each compound was measured in the following conditions: ATP=10 uM, and sample concentration=100 nM.
(§2) Raji cells cultured in RPMI1640 (Hyclone, SH30027.02) supplemented with 10% fetal bovine serum (Hyclon, USA) were distributed in a 12-well plate at the density of 1,000,000 cells/well. The cells were stabilized in a 37° C. CO2 for 24 hours and then treated with each compound for 1 and half hours. The cells were treated with 0.25 μg/mL of IgM (immunoglobulin M, Southern Biotech, USA) to increase the intracellular activity of PI3K delta. 30 minutes later, the medium was discarded and the cells were washed with cold PBS (phosphate buffered saline, Gibco, 14190-250). PBS was then eliminated completely by using a pipette. Western blotting was performed according to the same manner as described in step 2 of Experimental Example 1 to evaluate the intracellular PI3K delta activity.

For a further experiment, the target named is T2, PI3 Kinase (p120γ) (h) (Homo sapiens, UniProt P48736).
T2 construct: endogenous in cells; host or cells: RAW264.7
The experiment is described as follows: Inhibition of phosphatidylinositol 3-kinase gamma (PI3K γ), pAkt Western blotting in C5a-stimulated RAW264.7 macrophages. In kind it is cell-based, mouse. As to conditions: ATP=10 uM, sample concentration=100 nM. How it is done: as §1
The inhibition of phosphatidylinositol 3 kinase gamma (PI3K γ) by those compounds prepared in Examples 1˜98 was investigated by the following experiment. The inhibition activity of each compound was measured in the following conditions: ATP=10 uM, and sample concentration=100 nM.
as §2, with “Macrophages (RAW264.7)” for “Raji cells”, “DMEM (Dulbecco's Modified Eagle Medium, Hyclon, SH30243.01)” for “RPMI1640 (Hyclone, SH30027.02)”, “10 ng/mL” for “0.25 μg/mL”, “C5a (complement component 5a, 10 μg/mL; R&D, 2150-C5)” for “IgM (immunoglobulin M, Southern Biotech, USA)”, “gamma. 5” for “delta. 30”, “gamma” for “delta”
For orientation: Immunoblotting shows a protein as a band on a membrane.

T2 sequence (P48736 whole entry): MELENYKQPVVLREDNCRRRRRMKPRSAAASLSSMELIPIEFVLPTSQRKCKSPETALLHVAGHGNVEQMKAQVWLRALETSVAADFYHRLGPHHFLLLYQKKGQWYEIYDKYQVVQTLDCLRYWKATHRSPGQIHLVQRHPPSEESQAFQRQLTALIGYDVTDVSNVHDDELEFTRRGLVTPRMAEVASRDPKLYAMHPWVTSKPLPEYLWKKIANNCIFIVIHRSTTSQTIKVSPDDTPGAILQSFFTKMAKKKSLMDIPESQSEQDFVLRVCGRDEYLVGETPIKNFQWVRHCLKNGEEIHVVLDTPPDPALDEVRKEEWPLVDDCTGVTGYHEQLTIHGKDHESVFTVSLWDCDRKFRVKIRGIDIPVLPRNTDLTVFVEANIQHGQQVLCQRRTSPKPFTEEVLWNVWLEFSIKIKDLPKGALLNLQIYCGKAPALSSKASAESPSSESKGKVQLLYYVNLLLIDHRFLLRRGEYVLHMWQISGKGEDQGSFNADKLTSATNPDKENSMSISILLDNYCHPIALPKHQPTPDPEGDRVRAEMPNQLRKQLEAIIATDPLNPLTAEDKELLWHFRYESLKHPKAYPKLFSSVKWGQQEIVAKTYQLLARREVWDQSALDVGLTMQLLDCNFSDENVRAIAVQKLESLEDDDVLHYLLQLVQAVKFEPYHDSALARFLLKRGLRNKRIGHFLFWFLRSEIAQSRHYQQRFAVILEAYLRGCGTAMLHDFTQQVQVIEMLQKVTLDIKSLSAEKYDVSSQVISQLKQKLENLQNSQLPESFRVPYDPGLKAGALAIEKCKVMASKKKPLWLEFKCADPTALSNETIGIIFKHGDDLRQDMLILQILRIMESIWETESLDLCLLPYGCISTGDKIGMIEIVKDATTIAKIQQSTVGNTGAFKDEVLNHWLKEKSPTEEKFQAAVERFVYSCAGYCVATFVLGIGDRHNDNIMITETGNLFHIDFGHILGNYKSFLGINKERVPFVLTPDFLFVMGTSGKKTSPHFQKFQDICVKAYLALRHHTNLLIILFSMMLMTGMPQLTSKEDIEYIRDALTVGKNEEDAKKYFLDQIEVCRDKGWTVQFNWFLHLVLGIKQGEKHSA
T1 sequence (O00329 whole entry): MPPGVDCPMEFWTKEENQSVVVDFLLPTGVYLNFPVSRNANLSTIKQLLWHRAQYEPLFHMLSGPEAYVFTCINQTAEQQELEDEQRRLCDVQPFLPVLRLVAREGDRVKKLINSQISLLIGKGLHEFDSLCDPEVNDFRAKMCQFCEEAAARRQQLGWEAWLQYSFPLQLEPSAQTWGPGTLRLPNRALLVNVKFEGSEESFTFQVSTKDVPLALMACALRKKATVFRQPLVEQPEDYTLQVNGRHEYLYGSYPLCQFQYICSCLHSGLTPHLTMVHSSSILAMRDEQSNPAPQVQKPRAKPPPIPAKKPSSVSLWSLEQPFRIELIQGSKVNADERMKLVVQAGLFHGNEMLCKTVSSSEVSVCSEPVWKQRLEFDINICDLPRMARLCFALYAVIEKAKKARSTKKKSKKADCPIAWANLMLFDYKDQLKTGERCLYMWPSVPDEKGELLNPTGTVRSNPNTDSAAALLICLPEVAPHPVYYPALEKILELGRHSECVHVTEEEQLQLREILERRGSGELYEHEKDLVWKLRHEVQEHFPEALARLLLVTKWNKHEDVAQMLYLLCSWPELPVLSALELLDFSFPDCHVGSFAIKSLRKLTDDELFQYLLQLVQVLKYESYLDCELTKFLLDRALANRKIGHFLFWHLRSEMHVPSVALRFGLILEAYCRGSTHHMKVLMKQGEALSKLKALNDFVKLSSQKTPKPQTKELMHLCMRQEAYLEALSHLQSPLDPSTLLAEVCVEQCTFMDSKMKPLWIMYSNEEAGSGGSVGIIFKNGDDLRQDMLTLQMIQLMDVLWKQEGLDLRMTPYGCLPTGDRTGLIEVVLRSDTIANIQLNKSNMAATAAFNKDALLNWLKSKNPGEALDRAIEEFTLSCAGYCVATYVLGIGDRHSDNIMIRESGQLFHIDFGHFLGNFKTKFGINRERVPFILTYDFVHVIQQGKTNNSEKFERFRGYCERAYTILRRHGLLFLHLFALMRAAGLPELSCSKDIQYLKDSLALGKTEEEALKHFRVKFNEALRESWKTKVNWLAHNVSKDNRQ
T1 sequence (P27986 whole entry partner): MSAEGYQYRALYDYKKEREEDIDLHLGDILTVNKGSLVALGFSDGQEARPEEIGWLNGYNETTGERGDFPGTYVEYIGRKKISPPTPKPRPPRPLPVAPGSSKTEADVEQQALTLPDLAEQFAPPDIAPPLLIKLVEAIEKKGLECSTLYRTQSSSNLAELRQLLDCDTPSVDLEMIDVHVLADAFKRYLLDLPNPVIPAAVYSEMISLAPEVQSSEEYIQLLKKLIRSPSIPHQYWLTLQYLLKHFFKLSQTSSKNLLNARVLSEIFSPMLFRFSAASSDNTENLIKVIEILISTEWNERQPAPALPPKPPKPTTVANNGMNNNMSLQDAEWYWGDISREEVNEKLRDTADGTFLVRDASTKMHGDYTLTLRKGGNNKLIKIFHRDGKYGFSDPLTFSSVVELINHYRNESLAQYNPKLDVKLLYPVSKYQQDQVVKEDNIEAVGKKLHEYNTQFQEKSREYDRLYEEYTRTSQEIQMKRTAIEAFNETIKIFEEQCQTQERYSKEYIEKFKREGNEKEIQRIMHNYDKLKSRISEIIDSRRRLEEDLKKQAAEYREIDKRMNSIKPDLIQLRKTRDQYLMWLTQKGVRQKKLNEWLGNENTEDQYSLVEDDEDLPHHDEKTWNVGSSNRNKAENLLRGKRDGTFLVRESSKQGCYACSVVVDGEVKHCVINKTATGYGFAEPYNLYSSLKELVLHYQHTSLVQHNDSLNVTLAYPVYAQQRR

In the case of `Nc1nc(N2CCC[C@H]2c2cc3cccc(Cl)c3c(=O)n2-c2ccccc2)c2c(=O)nc[nH]c2n1` [Example 94, (S)-7-amino-5-(2-(8-chloro-1-oxo-2-phenyl-1,2-dihydroisoquinoline-3-yl)pyrrolidine-1-yl)pyrimido[4,5-d]pyrimidine-4(1H)-one], the IC50 (in experiment [1]; at PI3 Kinase (p120γ) (h)) was 10 to 500 nM throughout.

With `Cc1cccc(-n2c([C@@H]3CCCN3c3nc(N)nc4c3C(=O)N(C)CN4)nc3cccc(Cl)c3c2=O)c1` [Example 58, (S)-7-amino-5-(2-(5-chloro-4-oxo-3-(m-tolyl)-3,4-dihydroquinazoline-2-yl)pyrrolidine-1-yl)-3-methyl-2,3-dihydropyrimido[4,5-d]pyrimidine-4(1H)-one], the IC50 (in experiment [1]; against PI3 Kinase (p120γ) (h)) was above 500 nM throughout.

In the case of `Nc1nc(N2CCC[C@H]2c2nn3ccc(Cl)c3c(=O)n2-c2cccc(F)c2)c2c(=O)nc[nH]c2n1` [Example 96, (S)-7-amino-5-(2-(5-chloro-3-(3-fluorophenyl)-4-oxo-3,4-dihydropyrrolo[2,1-f][1,2,4]triazine-2-yl)pyrrolidine-1-yl)pyrimido[4,5-d]pyrimidine-4(1H)-one], the IC50 (in experiment [1]; on PI3 Kinase (p120γ) (h)) was above 500 nM in each case.

On to `C[C@H](Nc1ncnc2[nH]cnc(=O)c12)c1cc2ccccc2nc1-c1ccccc1` [Example 72, (S)-5-((1-(2-phenylquinoline-3-yl)ethyl)amino)pyrimido[4,5-d]pyrimidine-4(1H)-one], for which the IC50 (in experiment [1]; at PI3 Kinase (p120γ) (h)) was above 500 nM each time.

As for `C[C@H](Nc1ncnc2c1C(=O)N(C)CN2)c1nc2cccc(Cl)c2c(=O)n1-c1cccc(F)c1` [Example 36, (S)-5-((1-(5-chloro-3-(3-fluorophenyl)-4-oxo-3,4-dihydroquinazoline-2-yl)ethyl)amino)-3-methyl-2,3-dihydropyrimido[4,5-d]pyrimidine-4(1H)-one], the IC50 (as a rule, the concentration that gives 50% inhibition) was below 10 nM in experiment [1] and 10 to 500 nM on PI3 Kinase (p120γ) (h).

As to `C[C@H](Nc1nc(N)nc2c1C(=O)N(C)CN2)c1cc2ccccc2nc1-c1ccccc1` [Example 53, (S)-7-amino-3-methyl-5-((1-(2-phenylquinoline-3-yl)ethyl)amino)-2,3-dihydropyrimido[4,5-d]pyrimidine-4(1H)-one], the IC50 (in experiment [1]; on PI3 Kinase (p120γ) (h)) was 10 to 500 nM in each case.

As for `O=c1nc[nH]c2ncnc(N3CCC[C@H]3c3nc4cccc(Cl)c4c(=O)n3-c3cccnc3)c12` [Example 76, (S)-5-(2-(5-chloro-4-oxo-3-(pyridine-3-yl)-3,4-dihydroquinazoline-2-yl)pyrrolidine-1-yl)pyrimido[4,5-d]pyrimidine-4(1H)-one], the IC50 (in experiment [1]; on PI3 Kinase (p120γ) (h)) was above 500 nM each time.

Consider `C[C@H](Nc1ncnc2c1C(=O)N(C)CN2)c1nc2cccc(Cl)c2c(=O)n1-c1cccnc1` [Example 35, (S)-5-((1-(5-chloro-4-oxo-3-(pyridine-3-yl)-3,4-dihydroquinazoline-2-yl)ethyl)amino)-3-methyl-2,3-dihydropyrimido[4,5-d]pyrimidine-4(1H)-one], for which the IC50 (in experiment [1]; against PI3 Kinase (p120γ) (h)) was 10 to 500 nM throughout.

For `C[C@H](Nc1ncnc2c1C(=O)CCN2)c1cc2cccc(Cl)c2c(=O)n1-c1ccccc1` [Example 97, (S)-4-((1-(8-chloro-1-oxo-2-phenyl-1,2-dihydroisoquinoline-3-yl)ethyl)amino)-7,8-dihydropyrido[2,3-d]pyrimidine-5(6H)-one], the values for the IC50 (in experiment [1]; against PI3 Kinase (p120γ) (h)) were below 10 nM and 10 to 500 nM, respectively.

On to `O=c1nc[nH]c2ncnc(N3CCC[C@H]3c3nn4ccc(Cl)c4c(=O)n3-c3cccc(F)c3)c12` [Example 80, (S)-5-(2-(5-chloro-3-(3-fluorophenyl)-4-oxo-3,4-dihydropyrrolo[2,1-f][1,2,4]triazine-2-yl)pyrrolidine-1-yl)pyrimido[4,5-d]pyrimidine-4(1H)-one], for which the IC50 (in experiment [1]; on PI3 Kinase (p120γ) (h)) was above 500 nM each time.

For the compound `Cc1cccc(-n2c([C@@H]3CCCN3c3nc(N)nc4[nH]cnc(=O)c34)nc3cccc(Cl)c3c2=O)c1` [Example 93, (S)-7-amino-5-(2-(5-chloro-4-oxo-3-(m-tolyl)-3,4-dihydroquinazoline-2-yl)pyrrolidine-1-yl)pyrimido[4,5-d]pyrimidine-4(1H)-one], the half-inhibitory concentration (IC50) (in experiment [1]; at PI3 Kinase (p120γ) (h)) was above 500 nM each time.

As for `Nc1nc(N2CCC[C@H]2c2nc3cccc(Cl)c3c(=O)n2-c2cccnc2)c2c(=O)nc[nH]c2n1` [Example 91, (S)-7-amino-5-(2-(5-chloro-4-oxo-3-(pyridine-3-yl)-3,4-dihydroquinazoline-2-yl)pyrrolidine-1-yl)pyrimido[4,5-d]pyrimidine-4(1H)-one], the IC50 (in experiment [1]; against PI3 Kinase (p120γ) (h)) was above 500 nM each time.

In the case of `Cc1cccc(-n2c([C@H](C)Nc3nc(N)nc4c3C(=O)N(C)CN4)nc3cccc(Cl)c3c2=O)c1` [Example 51, (S)-7-amino-5-((1-(5-chloro-4-oxo-3-(m-tolyl)-3,4-dihydroquinazoline-2-yl)ethyl)amino)-3-methyl-2,3-dihydropyrimido[4,5-d]pyrimidine-4(1H)-one], the IC50 was below 10 nM in experiment [1] and 10 to 500 nM on PI3 Kinase (p120γ) (h).

For `C[C@H](Nc1nc(N)nc2[nH]cnc(=O)c12)c1nc2cccc(Cl)c2c(=O)n1-c1ccccc1` [Example 81, (S)-7-amino-5-((1-(5-chloro-4-oxo-3-phenyl-3,4-dihydroquinazoline-2-yl)ethyl)amino)pyrimido[4,5-d]pyrimidine-4(1H)-one], the IC50 (in experiment [1]; against PI3 Kinase (p120γ) (h)) was 10 to 500 nM in each case.

`Cc1cccc(-n2c([C@@H]3CCCN3c3ncnc4[nH]cnc(=O)c34)nc3cccc(Cl)c3c2=O)c1` [Example 78, (S)-5-(2-(5-chloro-4-oxo-3-(m-tolyl)-3,4-dihydroquinazoline-2-yl)pyrrolidine-1-yl)pyrimido[4,5-d]pyrimidine-4(1H)-one]: the IC50 (in experiment [1]; at PI3 Kinase (p120γ) (h)) was above 500 nM throughout.

In the case of `C[C@H](Nc1nc(N)nc2[nH]cnc(=O)c12)c1nn2ccc(Cl)c2c(=O)n1-c1ccccc1` [Example 86, (S)-7-amino-5-((1-(5-chloro-4-oxo-3-phenyl-3,4-dihydropyrrolo[2,1-f][1,2,4]triazine-2-yl)ethyl)amino)pyrimido[4,5-d]pyrimidine-4(1H)-one], the IC50 (in experiment [1]; on PI3 Kinase (p120γ) (h)) was 10 to 500 nM each time.

For the compound `CN1CNc2ncnc(N3CCC[C@H]3c3nc4cccc(Cl)c4c(=O)n3-c3cccnc3)c2C1=O` [Example 43, (S)-5-(2-(5-chloro-4-oxo-3-(pyridine-3-yl)-3,4-dihydroquinazoline-2-yl)pyrrolidine-1-yl)-3-methyl-2,3-dihydropyrimido[4,5-d]pyrimidine-4(1H)-one], the IC50 (in experiment [1]; on PI3 Kinase (p120γ) (h)) was above 500 nM in each case.

As to `Cc1cccc(-n2c([C@@H]3CCCN3c3ncnc4c3C(=O)N(C)CN4)nc3cccc(Cl)c3c2=O)c1` [Example 45, (S)-5-(2-(5-chloro-4-oxo-3-(m-tolyl)-3,4-dihydroquinazoline-2-yl)pyrrolidine-1-yl)-3-methyl-2,3-dihydropyrimido[4,5-d]pyrimidine-4(1H)-one], the IC50 (in experiment [1]; against PI3 Kinase (p120γ) (h)) was 10 to 500 nM each time.
